Three compounds from publication PMC12078564 (Nature Communications, 2025) can be followed below.

As usually defined, the Km is the concentration of substrate that gives half-maximal velocity. For orientation: Kd means the concentration at which binding is half-saturated.

Test [1] deals with CtCGT. The experiment in a line: HPLC C-glycosylation assay, Michaelis-Menten fit. The test is classed as biochemical, Carthamus tinctorius. The note with it: read-out: apparent Km; saturated UDP-Glc as sugar donor.
The target in test [2] is Ct2OGD1 (2-oxoglutarate-dependent dioxygenase), purified recombinant, NHS-labelled (Carthamus tinctorius). The experiment in a line: MST.

In the case of `O=C(CCc1ccc(O)cc1)c1c(O)cc(O)c([C@@H]2O[C@H](CO)[C@@H](O)[C@H](O)[C@H]2O)c1O` [1a, nothofagin], in test [1], the Km is 284 µM.
Take `O=C(CCc1ccc(O)cc1)c1c(O)cc(O)cc1O` [compound 1, phloretin]: the Michaelis constant (Km) in test [1] came out at 1.86 µM.
With “CtCGT (flavonoid di-C-glycosyltransferase, UGT708U8), purified recombinant (enzyme)”, the Kd in test [2] was determined as 541 nM.
